In US4430339A, “Substituted oxiranecarboxylic acids, their preparation and their use as medicaments” (Byk Gulden Lomberg Chemische Fabrik Gesellschaft mit …, priority 1980, dated 1984):

test system: not listed separately; assay: in vivo; conditions: mouse, po, mice p.o., observation time 7 days, read-out: Acute toxicity LD50 (converted)
Procedure: Column B provides data relating to acute toxicity (LD50; mice, peroral administration).
2. Determination of the toxicity.
Various doses of the substances (volume: 10 ml/kg) are administered orally by means of a stomach tube. The observation time is 7 days.

Row | SMILES | LD50
1 | CCOC(=O)C1(CCCCC2CCCC2)CO1 (stereo not shown) [Serial No. 6, 2-(4-Cyclopentylbutyl)-oxirane-2-carboxylic acid ethyl ester] | 1600 mg/kg
2 | CCOC(=O)C1(CCCC2CCCCCC2)CO1 (stereo not shown) [Serial No. 8, 2-(3-Cycloheptylpropyl)-oxirane-2-carboxylic acid ethyl ester] | 790 mg/kg
3 | CCOC(=O)C1(CCCC2CCCC2)CO1 (stereo not shown) [Serial No. 5, 2-(3-Cyclopentylpropyl)-oxirane-2-carboxylic acid ethyl ester] | 2400 mg/kg
4 | CCOC(=O)C1(CCCCCC2CCCCC2)CO1 (stereo not shown) [Serial No. 4, 2-(5-Cyclohexylpentyl)-oxirane-2-carboxylic acid ethyl ester] | 520 mg/kg
5 | CCOC(=O)C1(CCOCCCC2CCCCC2)CO1 (stereo not shown) [Serial No. 7, 2-[2-(3-Cyclohexylpropyloxy)-ethyl]-oxirane-2-carboxylic acid ethyl ester] | 570 mg/kg
6 | CCOC(=O)C1(CCCC2CCCCC2)CO1 (stereo not shown) [Serial No. 3, 2-(3-Cyclohexylpropyl)-oxirane-2-carboxylic acid ethyl ester] | 1400 mg/kg
7 | CCOC(=O)C1(CCCCCC2CCCCCC2)CO1 (stereo not shown) [Serial No. 9, 2-(5-Cycloheptylpentyl)-oxirane-2-carboxylic acid ethyl ester] | 330 mg/kg

test system: blood glucose concentration; assay: Determination of glucose in the blood after a single oral administration (fasted, metabolically healthy rats); set-up: species or system Sprague-Dawley rats; conditions: Rattus norvegicus, po, 6 h, read-out: Change in the blood glucose concentration (in %) in vivo (maximum, relative to the control group)
Procedure: Table I reflects investigations of the effect of representative compounds according to the invention on the blood glucose concentration of fasting, metaboically healthy rats. Column A in each case gives the maximum lowering of the blood glucose concentration of rats which have been fasted (in %, relative to the control group) which is observed in the course of 6 hours after single oral administration of 0.6 mmole of substance/kg of body weight. Column B provides data relating to acute toxicity (LD50; mice, peroral administration).
Column A = maximum change in the blood glucose concentration (in %,
relative to the control animals) in vivo in rats which have been fasted a
1. Determination of glucose in the blood after a single oral administration.
Young male Sprague-Dawley rats (body weight: 150 to 200 g) are used. The animals (6 animals per dose) are kept in Makrolon cages with up to 4 animals per cage (ambient temperature: 23° C., relative atmospheric humidity: 55%, fixed day/night rhythm [12/12 hours], standard diet: Altromin®). The rats are deprived of the feed 18 hours before the first sample of blood is taken. Water is available ad libitum. Samples of blood are taken from the postorbital plexus by puncture immediately before and 2, 4 and 6 hours after administration of the substance.
After deproteinization with perchloric acid, the glucose in the blood is determined by means of the enzymatic HK/G-6-PDH method of R. Richterich [Klinische Chemie, Theorie und Praxis, (Clinical Chemistry, Theory and Practice), 3rd edition, 1971, S. Karger Verlag, Zurich-Basle, page 275]. A control group (10 animals, treated with pure solvent) is also investigated in each case for comparison.

Row | SMILES | change in vivo at 600 µmol/kg
8 | CCCCNC(=N)NC(=N)N [Serial No. 1, Buformin, reference compound] | -8%

same assay, conditions: Rattus norvegicus; fasted rats; single oral administration of 0.6 mmole/kg; maximum in the course of 6 hours; read-out: Change in the blood glucose concentration (in %) in vivo (maximum, relative to the control group)

Row | SMILES | change in vivo at 600 µmol/kg
9 | CCOC(=O)C1(CCCCC2CCCC2)CO1 (stereo not shown) [Serial No. 6, 2-(4-Cyclopentylbutyl)-oxirane-2-carboxylic acid ethyl ester] | -21%
10 | CCOC(=O)C1(CCCC2CCCCCC2)CO1 (stereo not shown) [Serial No. 8, 2-(3-Cycloheptylpropyl)-oxirane-2-carboxylic acid ethyl ester] | -22%
11 | CCOC(=O)C1(CCCC2CCCC2)CO1 (stereo not shown) [Serial No. 5, 2-(3-Cyclopentylpropyl)-oxirane-2-carboxylic acid ethyl ester] | -15%
12 | CCOC(=O)C1(CCCCCC2CCCCC2)CO1 (stereo not shown) [Serial No. 4, 2-(5-Cyclohexylpentyl)-oxirane-2-carboxylic acid ethyl ester] | -48%
13 | CCOC(=O)C1(CCOCCCC2CCCCC2)CO1 (stereo not shown) [Serial No. 7, 2-[2-(3-Cyclohexylpropyloxy)-ethyl]-oxirane-2-carboxylic acid ethyl ester] | -30%
14 | [H]/N=C(/N)N/C(=N/[H])NCCc1ccccc1 [Serial No. 2, Phenformin, reference compound] | -6%
15 | CCOC(=O)C1(CCCC2CCCCC2)CO1 (stereo not shown) [Serial No. 3, 2-(3-Cyclohexylpropyl)-oxirane-2-carboxylic acid ethyl ester] | -24%
16 | CCOC(=O)C1(CCCCCC2CCCCCC2)CO1 (stereo not shown) [Serial No. 9, 2-(5-Cycloheptylpentyl)-oxirane-2-carboxylic acid ethyl ester] | -18%
